Source: patent publication US20260042754A1, “Substituted Bicyclic Heteroaryl Sulfonamide Derivatives for the Treatment of Cancer” (NODUS ONCOLOGY LIMITED, priority 2022, published 2026)

System: RMUG-S mucinous cystadenocarcinoma ovarian cancer cell line
Assay: Cell proliferation assay (CellTiter-Glo), RMUG-S, Examples 1-11
Type: cell-based
Details: Examples 1-11: 96-well, 5000 cells per well, 120 hours; highest concentration tested 9000 nM; read-out: RMUG-S GI50 (high PARG dependency)
Procedure: For Examples 1-11, RMUG-S mucinous cystadenocarcinoma (JCRB, #IF050320) and TOV-112D endometrioid adenocarcinoma (ATCC, #CRL-11731) ovarian cancer cell lines were grown in DMEM/F-12 with glutamine (BioConcept, #1-26F09-I) and RPMI with glutamine (BioConcept, #1-41F03-1), respectively, and both media containing 10% FBS (Sigma-Aldrich, #F9665) and supplemented with 1% Penicillin-Streptomycin (BioConcept, #4-01F00-H) using standard cell culture techniques. RMUG-S and TOV-112D ovarian cancer cell lines were selected as highly PARG dependent and having low PARG dependency, respectively, based on their publically available PARG shRNA (short hairpin ribonucleic acid) dropout profiles in the Cancer Dependency Map (DepMap) data portal (Broad Institute DepMap Project; Cheung H W et al, Proceedings of the National Academy of Sciences 2011; Cowley G S et al, Scientific Data 2014; McDonald E R et al, Cell 2017). PARG dependency of these cell lines was independently verified and confirmed by genetic and pharmacological means using shRNA-mediated PARG depletion, and the previously reported cell-permeable quinazolinedione PARG inhibitor tool compound PDD00017273 (Pillay N et al, Cancer Cell 2019). Thus, growth inhibition of the RMUG-S cell line serves as a functional on-target inhibition readout, while observing potent growth inhibition of TOV-112D is indicative of compound off-target activity. Cells were seeded in 96-well plates with clear bottom (Huberlab, #7.655 090) at a seeding density of 5000 cells per well in 100 μL of medium, and the plates were incubated overnight at 37° C. with 5% CO2 prior to treatment with compounds. Experimental compounds were prepared in DMSO at a concentration of 10 mM. Compounds were distributed at the desired final concentrations using the Tecan D300e Digital Dispenser (TECAN) and normalized to the highest DMSO volume. The plates were incubated for 120 hours and cell numbers were then measured using CellTiter-Glo® (Promega, #G9241), essentially as recommended by the manufacturer. Briefly, for the CellTiter-Glo® proliferation readout, 50 μL of the reconstituted CellTiter-Glo® 2.0 Reagent were added to 100 μL of medium containing cells. The plates were incubated at room temperature for 10 minutes to stabilize the luminescent signal, and luminescence intensity signals were then measured with a Synergy 4™ microplate reader (BioTek Instruments). Relative proliferation values were calculated by normalizing the raw data using DMSO-treated cells (100% proliferation) and the signals obtained from cells that were evaluated at the time of compound addition (0% proliferation). The concentration-response data were fitted to a sigmoidal 4-parameter logistic model with the maximum constrained to 100%. GI50 values were calculated from the curves as the compound concentrations reducing proliferation to 50%.

GI50 | Structure (SMILES)
500 to 2000 nM | CO/N=c1\[nH]c2ccc(S(=O)(=O)NC3(C)CC3)cc2c(=O)n1Cc1cnc(C)s1 [Example 1, 2-methoxyimino-N-(1-methylcyclopropyl)-3-[(2-methylthiazol-5-yl)methyl]-4-oxo-1H-quinazoline-6-sulfonamide]
500 to 2000 nM | CO/N=c1\[nH]c2c(-c3ccc(C(=O)N(C)C)cc3)cc(S(=O)(=O)NC3(C)CC3)cc2c(=O)n1Cc1cnn(C)c1 [Example 5, 4-[2-methoxyimino-6-[(1-methylcyclopropyl)sulfamoyl]-3-[(1-methylpyrazol-4-yl)methyl]-4-oxo-1H-quinazolin-8-yl]-N,N-dimethyl-benzamide]
2000 to 9000 nM | Cc1nc(C)c(CO/N=c2\[nH]c3ccc(S(=O)(=O)NC4(C)CC4)cc3c(=O)n2Cc2cnn(C)c2)s1 [Example 3, 2-[(2,4-dimethylthiazol-5-yl)methoxyimino]-N-(1-methylcyclopropyl)-3-[(1-methylpyrazol-4-yl)methyl]-4-oxo-1H-quinazoline-6-sulfonamide]
500 to 2000 nM | CO/N=c1\[nH]c2c(N3CCN[C@H](C)C3)cc(S(=O)(=O)NC3(C)CC3)cc2c(=O)n1Cc1cnn(C)c1 [Example 7, 2-methoxyimino-N-(1-methylcyclopropyl)-3-[(1-methylpyrazol-4-yl)methyl]-4-oxo-8-[(3R)-3-methylpiperazin-1-yl]-1H-quinazoline-6-sulfonamide]
< 500 nM | CON=c1[nH]c2c(N3CCN(C(=O)C4(C)CC4)[C@H](C)C3)cc(S(=O)(=O)NC3(C)CC3)cc2c(=O)n1Cc1cnn(C)c1 [Example 8, 2-methoxyimino-N-(1-methylcyclopropyl)-3-[(1-methylpyrazol-4-yl)methyl]-4-oxo-8-[(3R)-3-methyl-4-(1-methylcyclopropanecarbonyl)piperazin-1-yl]-1H-quinazoline-6-sulfonamide]
2000 to 9000 nM | CO/N=c1\[nH]c2ccc(S(=O)(=O)NC3(C)COC3)cc2c(=O)n1Cc1cnn(C)c1 [Example 2, 2-methoxyimino-N-(3-methyloxetan-3-yl)-3-[(1-methylpyrazol-4-yl)methyl]-4-oxo-1H-quinazoline-6-sulfonamide]
